Consider 10 compounds from article PMC4298791 (Angewandte Chemie (International Ed. in English), 2014).

The target in assay [1] is T1, CREBBP bromodomain (Homo sapiens, UniProt Q92793).
T1 construct: amplify the bromodomain region of the; made in house
The assay can be described thus: AlphaScreen peptide displacement assay. The assay is classed as binding. The method, then: AlphaScreen Peptide Displacement Assay: Bromodomain AlphaScreen assays were carried out as
previously described.11,34 All experiments were carried out in duplicate and, within a table, on the same plate. […]
For orientation: Bead proximity is the source of the signal in Alpha formats.

Another assay concerns the target BRD4(1) (Homo sapiens, UniProt O60885). Description: Isothermal titration calorimetry (ITC). The assay is classed as binding. To be noted: 15 °C. The method, then:
(§1) Isothermal Titration Calorimetry (ITC): Experiments were carried out on a VP-ITC titration microcalorimeter from MicroCal™ , LLC (Northampton, MA) with a cell volume of 1.4189 ml and a 250 µl microsyringe equipped with a ThermoVac module.
(§2) The microsyringe was loaded with a solution of the protein sample (200-500 µM protein in ITC buffer) and was carefully inserted into the calorimetric cell which was filled with an amount of the ligand ([…], 20-30 µM in ITC buffer). The system […]
(§3) applied. All titrations were conducted using an initial control injection of 2 µl followed by up to 34 identical injections of 8 µl with a duration of 4 sec per injection and a spacing of 250 sec between injections. The titration experiments were designed in such a fashion, as to ensure complete saturation of the enzymes before […]
(§4) corrected for protein heats of dilution (measured on separate experiments by titrating the proteins into ITC buffer) and deconvoluted using the MicroCal™ Origin software supplied with the instrument to yield enthalpies of binding (∆H) and binding constants (KB) in the same fashion to that previously described in detail by Wiseman and coworkers.35 Thermodynamic parameters were calculated using the basic equation of thermodynamics (∆G = ∆H − T∆S = −RTlnKB, where ∆G, ∆H and ∆S are the changes in free energy, enthalpy […]
(§5) and entropy of binding respectively).
(§6) MicroCal™ Origin software package.
For orientation: ITC needs no label: the signal is the heat of the interaction.

Assay [2] deals with T1, CREBBP bromodomain. Description: Isothermal titration calorimetry (ITC). Type of assay: binding. To be noted: 15 °C. On the procedure:
as §1, §2, §3, §4, §5, §6

For a further assay, the target named is T2, CREBBP (Homo sapiens, UniProt Q92793).
T2 construct: amplify the bromodomain region of the; made in house
The assay can be described thus: Differential scanning fluorimetry (ΔTm). The assay is classed as binding. To be noted: DSF; protein 2 µM, compound 10 µM. Background: Differential scanning fluorimetry follows unfolding on heating by fluorescence.

Assay [3] concerns GFP chimerized to multimerized CREBBP bromodomains in U2OS cells. The assay can be described thus: Fluorescence recovery after photobleaching (FRAP) assay. The assay is classed as cell-based. On the procedure:
To determine the utility of (R)-2 in a cellular setting a FRAP assay was conducted.
The bleached area is indicated by a red circle. B) Half times of fluorescence recovery (t1/2) of U2OS cells expressing green fluorescent protein (GFP) chimerized to multimerized CREBBP bromodomains with or without 2.5 μM SAHA (indicated by †).
CREBBP bromodomain from chromatin. A) Time dependence of fluorescent recovery in the bleached area of U2OS cells expressing GFP chimerised to multimerised CREBBP bromodomains. Curves represent the means at each time point of 15 cells in each group (see Figure 3A for representative images of cell nuclei). B) Half times of fluorescence recovery (t½) of cells expressing GFP chimerised to multimerised CREBBP bromodomains. Bars represent the mean t½ calculated from individual recovery curves of 15 cells per group. * […]
as §5
MicroCal™ Origin software package. […]
crystallization robot (TTP Labtech, Royston UK).
50+100 nl). […] All crystallizations were carried out […]
followed by manual building in COOT42.

The target of the next assay is T3, BAZ2B (Homo sapiens, UniProt Q9UIF8).
T3 sequence (Q9UIF8 2060-2164 limits assumed): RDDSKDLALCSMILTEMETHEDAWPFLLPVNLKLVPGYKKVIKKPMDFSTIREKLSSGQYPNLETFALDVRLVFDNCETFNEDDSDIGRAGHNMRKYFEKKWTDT
Description: Differential scanning fluorimetry (ΔTm). To be noted: read-out: ΔTm BAZ2B.

In another assay the target is T4, BRD9 (Homo sapiens, UniProt Q9H8M2).
T4 sequence (Q9H8M2 136-240 limits assumed): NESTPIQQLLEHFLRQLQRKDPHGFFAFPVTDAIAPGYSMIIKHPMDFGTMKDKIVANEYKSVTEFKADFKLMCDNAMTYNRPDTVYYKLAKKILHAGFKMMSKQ
Description: Differential scanning fluorimetry (ΔTm). To be noted: read-out: ΔTm BRD9.

In the next assay the target is T5, BRPF3 (Homo sapiens, UniProt Q9ULD4).
T5 sequence (Q9ULD4 589-693 limits assumed): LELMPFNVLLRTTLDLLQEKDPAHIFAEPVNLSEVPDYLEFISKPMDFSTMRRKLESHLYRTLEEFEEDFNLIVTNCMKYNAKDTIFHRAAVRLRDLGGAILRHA
The assay can be described thus: Differential scanning fluorimetry (ΔTm). To be noted: read-out: ΔTm BRPF3.

A further assay concerns the target LOC93349A (Homo sapiens, UniProt Q9H930). The assay can be described thus: Differential scanning fluorimetry (ΔTm). To be noted: read-out: ΔTm LOC93349A.
In another assay the target is PB1(1) (Homo sapiens, UniProt Q86U86). Description: Differential scanning fluorimetry (ΔTm). To be noted: read-out: ΔTm PB1(1).
The next assay has as its target T6, PCAF (Homo sapiens, UniProt Q92831).
T6 sequence (Q92831 723-827 limits assumed): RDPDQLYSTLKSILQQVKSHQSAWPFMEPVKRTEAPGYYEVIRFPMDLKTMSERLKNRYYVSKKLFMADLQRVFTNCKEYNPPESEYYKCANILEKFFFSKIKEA
Description: Differential scanning fluorimetry (ΔTm). To be noted: read-out: ΔTm PCAF.

The target in the next assay is T7, TIF1α (Homo sapiens, UniProt O15164).
T7 sequence (O15164 899-1004 limits assumed): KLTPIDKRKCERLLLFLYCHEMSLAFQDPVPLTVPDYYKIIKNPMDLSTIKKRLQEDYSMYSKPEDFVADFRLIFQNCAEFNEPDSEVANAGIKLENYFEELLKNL
The assay can be described thus: Differential scanning fluorimetry (ΔTm). To be noted: read-out: ΔTm TIF1α.

In assay [4] the target is T1, CREBBP bromodomain. More on the design: method as in PMID 21804994, PMID 21851057. To be noted: cited from earlier work.
[5] abbreviates: peptide and protein concentration = 25 nM, range in parentheses, read-out: IC50/nM vs CREBBP.

Each structure is given as a SMILES string. Like-named read-outs stand apart in the source and are kept apart here.

T1 sequence (Q92793 1085-1192 limits assumed): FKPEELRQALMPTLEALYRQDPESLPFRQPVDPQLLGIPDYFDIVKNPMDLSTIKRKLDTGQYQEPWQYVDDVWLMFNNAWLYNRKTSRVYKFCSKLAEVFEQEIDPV
Chain of LOC93349A (Q9H930 467-570 limits assumed): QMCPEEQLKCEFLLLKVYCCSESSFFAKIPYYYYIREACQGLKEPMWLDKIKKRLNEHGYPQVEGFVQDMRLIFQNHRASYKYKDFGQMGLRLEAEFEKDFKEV
Chain of PB1(1) (Q86U86 41-151 limits assumed): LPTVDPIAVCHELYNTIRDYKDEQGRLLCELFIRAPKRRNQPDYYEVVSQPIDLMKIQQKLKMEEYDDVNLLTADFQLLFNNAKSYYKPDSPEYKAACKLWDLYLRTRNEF
T2 sequence (Q92793 1085-1192 limits assumed): as the sequence (Q92793 1085-1192 limits assumed) above
Description for LOC93349A: (§7) Differential Scanning Fluorimetry: Bromodomain ΔTm assay was performed as reported previously,34 with protein at a final concentration of 2 µM and compound at 10 µM.
Description for PB1(1): as §7

Regarding `C[C@H]1Nc2c(cccc2C(=O)NCCCN2CCCc3ccccc32)NC1=O` [(R)-1], the IC50 at CREBBP bromodomain [1] (setting [5]) turned out to be 758 nM; at CREBBP bromodomain [1] (read-out: CREBBP IC50), 760 nM.

Usually ΔTm stands for the change in melting temperature against a reference sample. On to `COc1ccc2c(c1)N(CCCNC(=O)c1cccc3c1N[C@H](C)C(=O)N3)CCC2` [(R)-2], for which the “−TΔS of binding to BRD4” value at BRD4(1) was -1.36 kcal/mol. Moreover, the “ΔH of binding to BRD4” value at BRD4(1) (error = error in fitting) is -6.42 ± 0.12 kcal/mol. Also, the “TΔS of binding to CREBBP” value on CREBBP bromodomain [2] is -2.40 kcal/mol. In addition, the “ΔH of binding to CREBBP” value on CREBBP bromodomain [2] (error = error in fitting) was -6.12 ± 0.04 kcal/mol. Further, the ΔTm at 10 µM was 5.4 °C at CREBBP; less than 0.5 °C at BAZ2B; less than 1.1 °C on BRD9; 0.5 °C at BRPF3; 0.3 °C at LOC93349A; less than 0.1 °C at PB1(1). Also, the ΔTm at 10 µM amounted to 0 °C on PCAF and 0.7 °C on TIF1α. The “half time of fluorescence recovery (t1/2) compared to wild-type cells” value in assay [3] (1, 5, 10 µM (R)-2 in presence of 2.5 μM SAHA) is “dose-dependently reduced”. The “displacement of CREBBP bromodomain from chromatin (FRAP)” value in [3] (1, 5, 10 µM, with 2.5 μM SAHA) is on record as “can displace the CREBBP bromodomain from chromatin”.

As for `C[C@H]1Nc2c(cccc2C(=O)NCCCN2CCOc3ccccc32)NC1=O` [(R)-5], the IC50 at CREBBP bromodomain [1] (setting [5]) was found to be 549 nM.

With `COc1ccc2c(c1)CCCN2CCCNC(=O)c1cccc2c1N[C@H](C)C(=O)N2` [(R)-6], the IC50 on CREBBP bromodomain [1] (setting [5]) amounted to 1410 nM.

`COc1ccc2c(c1)N(CCCNC(=O)c1cc(F)cc3c1N[C@H](C)C(=O)N3)CCC2` [(R)-7]: the IC50 on CREBBP bromodomain [1] (setting [5]) was found to be 1530 nM.

As for `COc1ccc2c(c1)N(CCCNC(=O)c1c(F)ccc3c1N[C@H](C)C(=O)N3)CCC2` [(R)-8], the IC50 on CREBBP bromodomain [1] (setting [5]) was found to be 2550 nM.

For the compound `C[C@@H]1Nc2c(cccc2C(=O)NCCCN2CCCc3ccccc32)NC1=O` [(S)-1], at CREBBP bromodomain [1] (setting [5]), the IC50 was determined as 6870 nM.

In the case of `CN1CCCC1=O` [N-methyl-2-pyrrolidone (NMP), N-methyl-2-pyrrolidone], the IC50 at CREBBP bromodomain [4] (AlphaScreen) is 1900 µM. In addition, the ligand efficiency on CREBBP bromodomain [4] (from AlphaScreen IC50 vs CREBBP bromodomain) is 0.54.

With `CC1Oc2c(cccc2C(=O)NCCN2CCc3ccccc32)NC1=O` (stereo not shown) [compound 3], the IC50 at CREBBP bromodomain [1] (read-out: CREBBP IC50) amounted to 77000 nM.

With `CC1Oc2c(cccc2C(=O)NCCCN2CCCc3ccccc32)NC1=O` (stereo not shown) [compound 4], on CREBBP bromodomain [1] (read-out: CREBBP IC50), the IC50 came out at 51000 nM.
